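Assay format: 96-well plates, 48-hour exposure. The concentration for 50% growth inhibition is given as GI50. TGI: concentration producing complete growth inhibition.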
What was measured:
Assay in all cases: inhibition of tumour cell growth, NCI panel, 48 h
NCI/ADR-RES ovarian = system: NCI/ADR-RES ovarian
BT-549 breast = system: BT-549 breast
HS 578T breast = system: HS 578T breast
OVCAR-3 ovarian = system: OVCAR-3 ovarian
SF-539 CNS = system: SF-539 CNS
COLO 205 colon = system: COLO 205 colon
NCI-H226 lung = system: NCI-H226 lung
SF-268 CNS = system: SF-268 CNS
UACC-62 melanoma = system: UACC-62 melanoma
MDA-MB-231 breast = system: MDA-MB-231 breast

SMILES	TGI (NCI/ADR-RES ovarian) [µM]	TGI (BT-549 breast) [µM]	TGI (HS 578T breast) [µM]	TGI (OVCAR-3 ovarian) [µM]	TGI (SF-539 CNS) [µM]	TGI (COLO 205 colon) [µM]	TGI (NCI-H226 lung) [µM]	TGI (SF-268 CNS) [µM]	TGI (UACC-62 melanoma) [µM]	TGI (MDA-MB-231 breast) [µM]	GI50 (NCI/ADR-RES ovarian) [µM]	GI50 (OVCAR-3 ovarian) [µM]	GI50 (SF-539 CNS) [µM]	GI50 (COLO 205 colon) [µM]	GI50 (UACC-62 melanoma) [µM]	GI50 (SF-268 CNS) [µM]
N=c1c2c(=S)n(-c3ccccc3)c(=S)n(-c3ccccc3)c2nc(SCCN2CCCC2)n1-c1ccccc1	42.1	5.13	> 100	3.38	9.71	3.17	18.4	5.69	3.04	3.52	–	–	–	–	–	–
CCN(CC)CCN1C(=O)c2c(c3c4ccccc4[nH]c3c3ccc4ccccc4c23)C1=O	4.15	–	–	3.03	3.08	10.8	–	–	2.97	–	1.59	1.65	1.7	2.56	1.57	–
C=C(NC(=O)C(=C)NC(=O)c1csc(C2=NC3c4csc(n4)C4NC(=O)c5csc(n5)C(C(C)(O)C(C)O)NC(=O)C5CSC(=N5)/C(=C/C)NC(=O)C(C(C)O)NC(=O)c5csc(n5)C3(CC2)NC(=O)C(C)NC(=O)C(=C)NC(=O)C(C)NC(=O)C(C(C)CC)NC2C=Cc3c(C(C)O)cc(nc3C2O)C(=O)OC4C)n1)C(N)=O (stereo unspecified)	> 100	–	–	> 25.8	4.13	0.836	3.8	> 100	2.42	–	–	–	–	0.299	–	4.74
COc1cc(OC)c2c3c(OC)cc(OC)c4c(=O)c(O)c(C[C@@H](C)O)c(c5c(C[C@@H](C)O)c(O)c(=O)c1c25)c43	> 100	46	–	9.4	93.5	16.7	44.7	70.4	–	25.3	–	–	–	–	–	–
CC(C)=CCc1[nH]c2ccccc2c1C1=C(O)C(=O)C(c2c(CC=C(C)C)[nH]c3ccccc23)=C(O)C1=O	17.3	1.59	73.8	3.92	–	3.07	4.6	7.11	2.94	3.38	–	–	–	–	–	–
CC1(C)CCC(C)(C)C1C(=O)NC(O)C(=O)O (stereo unspecified)	> 100	–	> 100	–	> 100	> 100	> 100	> 100	> 100	> 100	–	–	–	–	–	–
CC(=O)Nc1c(S(=O)(=O)c2ccccc2)c(C)c(C)n1Cc1ccccc1	> 100	> 100	> 100	> 100	–	> 100	> 100	> 100	> 100	> 100	–	–	–	–	–	–
CCOC(=O)c1nc2ccc(C(F)(F)F)cc2nc1Nc1ccc(Cl)c(Cl)c1	> 100	> 100	> 100	> 100	> 100	> 100	–	> 100	> 100	> 100	–	–	–	–	–	–
Cc1ccc(C2=C(C#N)C(N)OC3=C2COc2ccccc23)cc1 (stereo unspecified)	> 100	> 100	–	41.9	> 100	> 100	> 100	85.9	> 100	> 100	–	–	–	–	–	–
O=C1CC(c2ccccc2)=Nc2ccccc2N1	–	–	–	> 100	> 100	> 100	> 100	> 100	> 100	–	–	–	–	–	–	–
CC(C)(C)OC(=O)CN1CCNCCN(CC(=O)OC(C)(C)C)CCNCC1	> 100	> 100	> 100	> 100	> 100	> 100	> 100	–	> 100	> 100	–	–	–	–	–	–
COc1ccc2c3c([nH]c2c1)CCN(CCCC(=O)c1ccc(F)cc1)C3	33.9	–	31.7	32.9	22.3	25.5	33.2	34.1	27.4	31.2	–	–	–	–	–	–
Cc1oc2c(c1C)S(=O)(=O)C(C#N)=C(N(C)C)N2	> 100	> 100	> 100	> 100	> 100	–	> 100	> 100	> 100	> 100	–	–	–	–	–	–
C=C1C(=O)O[C@@H]2[C@H](O)[C@@H](C)[C@@H]3C=CC(=O)[C@@]3(C)[C@@H](OC(=O)/C(C)=C/C)[C@H]12	5.39	–	–	1.69	1.96	1.11	8.97	3.84	1.11	–	–	–	–	–	–	–
O=C(c1ccc(Cl)cc1)N(C(=S)N1CCN(c2ccccn2)CC1)C1CCCCC1	–	–	–	> 100	> 100	> 100	70.5	> 100	> 100	–	–	–	–	–	–	–
Cn1ncc2c(Cl)ncnc21	> 100	> 100	> 100	> 100	> 100	> 100	> 100	> 100	> 100	–	–	–	–	–	–	–
C[C@@H]1C(=O)C[C@H]2C(C)(C)CCC[C@]2(C)[C@@]1(O)CCc1ccoc1	–	> 100	> 100	> 100	> 100	> 100	> 100	> 100	> 100	> 100	–	–	–	–	–	–
COc1ccc([C@@H]2CC(=O)N2)cc1	–	–	–	–	> 100	> 100	> 100	> 100	> 100	–	–	–	–	–	–	–
Cc1csc2c1-n1cccc1C2=O	> 100	> 100	> 100	> 100	–	> 100	> 100	> 100	> 100	> 100	–	–	–	–	–	–
Cc1sc2c(c1C)/C(=N\O)c1cccn1-2	> 100	> 100	46	> 100	–	> 100	> 100	> 100	> 100	> 100	–	–	–	–	–	–
O=C1CC[C@@]2(O)[C@H]3Cc4ccc(-c5ccccc5)c5c4[C@@]2(CCN3CC2CC2)[C@H]1O5	33.7	31.3	–	33.6	33.5	35	50.1	29.7	25.2	31.8	–	–	–	–	–	–
CC(O)(P(=O)(O)O)P(=O)(O)OCC(O)CN1CCOCC1 (stereo unspecified)	> 100	> 100	> 100	–	> 100	> 100	> 100	> 100	> 100	> 100	–	–	–	–	–	–

— PubChem BioAssay (NCI)
